What all share (assay): NCI-60 cell line screen, 48 h
The subject of assay [1] is A549.
Assay [2] concerns ACHN.
Assay [3] relates to BT-549.
Assay [4] deals with COLO 205.
The test system of assay [5] is DU-145.
The subject of assay [6] is EKVX.
Assay [7] concerns HOP-92.
In assay [8] the test system is K562.
Assay [9] concerns KM12.
Assay [10] deals with NCI-H460.
Assay [11] relates to SF-539.
The subject of assay [12] is SK-MEL-28.
Assay [13] has as its system SK-MEL-5.
The test system of assay [14] is SN12C.
For assay [15], the system named is SR.
The test system of assay [16] is TK-10.
The test system of assay [17] is UACC-257.
The subject of assay [18] is SNB-19.
Assay [19] concerns UACC-62.
Assay [20] relates to HCC 2998.

Eleven molecules from ChEMBL document CHEMBL1201862, “PubChem BioAssay data set” (2004) can be followed below.

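Test compounds were applied to cells in 96-well plates for 48 hours at 5 doses. GI50 = concentration required for 50% inhibition of growth.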 Activity calls are given as the source filed them. Cut-off read from the data, not from the text of the source: active = GI50 up to about 1.1 µM and inactive = higher.

Consider `OCC1(CNc2cc(Cl)ncn2)CCC1`, for which the GI50 in assay [1], in assay [2], in assay [3], in assay [4], in assay [5] and in assay [6] was > 100 µM (inactive) throughout. The GI50 in assay [7], in assay [8], in [9], in assay [10], in assay [11] and in [12] was > 100 µM (inactive) in each case. The GI50 in [13], in assay [14], in assay [15], in assay [16] and in assay [17] was > 100 µM (inactive) each time.
As for `CCOC(=O)c1c(C)n(C)c2c1cc(O)c1[nH]c3c(c12)CCCC3`, the GI50 in [1] is 18 µM (inactive); in assay [2], 27.4 µM (inactive); in assay [3], 45.7 µM (inactive); in [4], 10.8 µM (inactive); in assay [5] it was 22.8 µM (inactive); in assay [6] it was 17.6 µM (inactive). The GI50 in [7] was 0.0185 µM (active); in assay [8] it was 17.3 µM (inactive); in [9], 15 µM (inactive); in assay [10] it was 20.5 µM (inactive); in assay [11], 19.2 µM (inactive); in assay [12] it was 17.5 µM (inactive). For the same molecule, the GI50 in assay [13] is 12.3 µM (inactive); in assay [14], 24.2 µM (inactive); in [18], 38.4 µM (inactive); in [16], 22.9 µM (inactive); in assay [17], 3.61 µM (inactive); in [19], 18.8 µM (inactive).
As to `CC(=O)NC1CONC1=O` (stereo not drawn), the GI50 in assay [1], in [2], in [3], in assay [4], in assay [5] and in assay [6] was > 100 µM (inactive) throughout. Also, the GI50 in [7], in [8], in [9], in assay [10], in assay [11] and in assay [12] was > 100 µM (inactive) each time. The GI50 in assay [13], in assay [14], in [18], in [15], in assay [16] and in assay [17] was > 100 µM (inactive) in each case. In assay [19], the GI50 is > 100 µM (inactive).
`CC1(C)CC2C(=O)c3ccccc3NC2c2ccccc21` (stereo not drawn): the GI50 in assay [1] is 6.11 µM (inactive); in assay [2] it was 14.4 µM (inactive); in assay [3], 10.8 µM (inactive); in assay [4], 3.44 µM (inactive); in assay [5] it was 3.6 µM (inactive); in assay [6], 43.2 µM (inactive). Also, the GI50 in assay [20] is 5.86 µM (inactive); in assay [7], > 24.6 µM (inactive); in assay [8], 1.09 µM (active); in assay [9] it was 4.3 µM (inactive); in assay [10], 3.12 µM (inactive); in assay [11], 2.33 µM (inactive). Also, the GI50 was 5.51 µM (inactive) in assay [12]; 3.5 µM (inactive) in assay [13]; 5.79 µM (inactive) in assay [14]; 5.79 µM (inactive) in assay [18]; 12 µM (inactive) in assay [16]; 40.4 µM (inactive) in assay [17]. Besides, the GI50 in assay [19] was 3.9 µM (inactive).
In the case of `COc1cc(C(=O)NNC(=O)c2cc(Br)ccc2NC(=O)c2cccs2)cc(OC)c1OC`, the GI50 in [1] is 21.2 µM (inactive); in assay [2] it was 17 µM (inactive); in assay [3], 22.3 µM (inactive); in [4] it was 12.9 µM (inactive); in assay [5] it was 29.3 µM (inactive); in assay [6], 6.65 µM (inactive). The GI50 was 15.3 µM (inactive) in assay [7]; < 0.01 µM (active) in assay [8]; 22.8 µM (inactive) in assay [9]; 20.2 µM (inactive) in assay [10]; 15.4 µM (inactive) in assay [11]; 13.8 µM (inactive) in [13]. Besides, the GI50 in assay [14] was 20 µM (inactive); in [18] it was 23.1 µM (inactive); in [15], 22.9 µM (inactive); in [16], 25.3 µM (inactive); in assay [17], 22.5 µM (inactive); in assay [19], 16.7 µM (inactive).
For `Cc1n[n+]([O-])c(C)cc1[N+](=O)[O-]`, the GI50 in assay [1] was 22 µM (inactive); in assay [2], 16.6 µM (inactive); in [3] it was 24.7 µM (inactive); in assay [4], 13.5 µM (inactive); in assay [5], 21.7 µM (inactive); in assay [6] it was 23.5 µM (inactive). Also, the GI50 was 12.5 µM (inactive) in [20]; 16.8 µM (inactive) in assay [7]; 14 µM (inactive) in [10]; 27.6 µM (inactive) in [11]; 18 µM (inactive) in [12]; 16.3 µM (inactive) in [13]. In addition, the GI50 in assay [14] is 14.9 µM (inactive); in assay [18], 39.4 µM (inactive); in assay [16], 8.67 µM (inactive); in assay [17] it was 15.6 µM (inactive); in [19] it was 17.7 µM (inactive).
As to `C/C(=C/C(=O)Nn1c(Cc2ccccc2)n[nH]c1=O)C(=O)O`, the GI50 in [1], in assay [2], in assay [3], in assay [4], in assay [5] and in assay [6] was > 100 µM (inactive) each time. Besides, the GI50 in [20], in [8], in [9], in assay [10], in [11] and in assay [12] was > 100 µM (inactive) throughout. Besides, the GI50 in assay [13], in [14], in assay [18], in assay [16], in assay [17] and in assay [19] was > 100 µM (inactive) in each case.
With `C/C(O)=C/C(=O)c1[nH]c(C(=O)O)cc1C1CCN(Cc2ccccc2)C1=O` (stereo not drawn), the GI50 was 26.9 µM (inactive) in assay [1]; 28.6 µM (inactive) in assay [2]; 22.6 µM (inactive) in [3]; 18 µM (inactive) in assay [4]; 18.3 µM (inactive) in assay [5]; 21.3 µM (inactive) in assay [6]. Also, the GI50 in [20] was 13.2 µM (inactive); in [7], 20.8 µM (inactive); in [8], 29.4 µM (inactive); in [9], 29.9 µM (inactive); in assay [10], 15.8 µM (inactive); in [12] it was 23.2 µM (inactive). Further, the GI50 is 19.9 µM (inactive) in assay [13]; 22.7 µM (inactive) in [18]; 27.9 µM (inactive) in assay [16]; 22.4 µM (inactive) in assay [17]; 18.5 µM (inactive) in assay [19].
For `Cn1cnc([N+](=O)[O-])c1[Se]c1ncnc2nc[nH]c12`, the GI50 in assay [1] was 27.5 µM (inactive); in assay [2], 17.1 µM (inactive); in [3], 14.6 µM (inactive); in [4], 15.1 µM (inactive); in [5] it was 19.1 µM (inactive); in assay [6], 21.2 µM (inactive). The GI50 was 12.2 µM (inactive) in assay [7]; 4.07 µM (inactive) in [8]; 5.69 µM (inactive) in assay [9]; 22.1 µM (inactive) in [10]; 13.4 µM (inactive) in [11]; 3.79 µM (inactive) in assay [12]. Further, the GI50 was 1.66 µM (inactive) in [13]; 11.7 µM (inactive) in [14]; 24 µM (inactive) in [18]; 2.04 µM (inactive) in assay [15]; 1.91 µM (inactive) in [16]; 2.04 µM (inactive) in [17]. Moreover, the GI50 in [19] was 1.77 µM (inactive).
Regarding `COc1cc2c(c(OC)c1OC)-c1ccc(SC)c(=O)cc1[C@@H](OC(C)=O)CC2`, the GI50 in assay [1], in [2], in assay [3], in assay [4], in assay [5] and in [20] was < 0.01 µM (active) in each case. Also, the GI50 in assay [7] was > 100 µM (inactive); in [8], < 0.01 µM (active); in assay [9] it was < 0.01 µM (active); in [10], < 0.01 µM (active); in [11] it was < 0.01 µM (active); in [12], < 0.01 µM (active). Further, the GI50 is < 0.01 µM (active) in [13]; < 0.01 µM (active) in [14]; < 0.01 µM (active) in assay [18]; 21.8 µM (inactive) in assay [16]; < 0.01 µM (active) in assay [17]; < 0.01 µM (active) in assay [19].
In the case of `C/C(=N\Nc1nc2ccccc2o1)c1cc2ccccc2cn1`, the GI50 in [1] was 0.054 µM (active); in [2], < 0.01 µM (active); in assay [3], 0.173 µM (active); in [4], < 0.01 µM (active); in assay [5], 0.349 µM (active); in [6] it was < 0.01 µM (active). The GI50 in assay [7] was < 0.0208 µM (active); in assay [8] it was < 0.01 µM (active); in [9] it was 0.0346 µM (active); in [10], 0.0311 µM (active); in assay [11], < 0.0281 µM (active); in [12], 0.364 µM (active). The GI50 in assay [13] was 0.0101 µM (active); in [14], < 0.01 µM (active); in assay [18], 0.547 µM (active); in assay [15], 0.112 µM (active); in assay [17], < 0.01 µM (active); in [19], 0.0775 µM (active).
